Legend:
Format in all cases: physicochemical
[1] = Photochemical stability of the compound in EtOH/H2O assessed as ring opening by measuring compound decomposition at 75 mM measured in presence of ambient daylight conditions after 40 mins by UV-vis spectrophotometric method; conditions: for degraded at 40 min: EtOH/H2O, read-out: Drug degradation
[2] = Drug metabolism assessed as ring opening in EtOH/H2O at 75 mM measured after 40 mins under dark condition by UV-vis spectrophotometric method; conditions: for degraded at 40 min: EtOH/H2O, read-out: Drug metabolism; for Drug metabolism: 40 min, 75000 µM
[3] = Photochemical stability of the compound assessed as compound decomposition in phosphate buffer at pH 7.4 exposed to daylight at 0.4 mM measured over 3 hrs by UV-Vis absorbance method; conditions: read-out: Drug degradation

## [O-]c1on[s+]c1-c1ccc(F)cc1
[1]
  degraded at 40 min: 76%
[2]
  degraded at 40 min: 40 to 80%

## [O-]c1on[s+]c1-c1ccccc1
[2]
  degraded at 40 min: 48%
[3]
  degraded at 3 h, 400 µM: 7%

## [O-]c1on[s+]c1-c1ccc(F)cc1F
[1]; 40 min, 75000 µM
  Stability: Stable
[2]
  Drug metabolism: Metabolite_Detected

## [O-]c1on[s+]c1-c1cccc(Cl)c1
[2]
  degraded at 40 min: 40 to 80%

## [O-]c1on[s+]c1-c1ccc(Cl)cc1
[1]
  degraded at 40 min: 42%
[2]
  Drug metabolism: Metabolite_Detected

## [O-]c1on[s+]c1-c1ccccc1Cl
[2]
  Drug metabolism: Metabolite_Detected

## [O-]c1on[s+]c1-c1cc(F)cc(F)c1
[2]
  degraded at 40 min: 40 to 80%

Reference: ChEMBL document CHEMBL4219093, “New 4-aryl-1,3,2-oxathiazolylium-5-olates: Chemical synthesis and photochemical stability of a novel series of S-nitrosothiols” (Bioorg Med Chem Lett, 2018)
